Tests used:
chickweed [1] = test: Test Example 4: herbicidal effect by soil treatment (Table 19, symbol P); format: in vivo, common chickweed (Stellaria media)
Summary of the method: (§1)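 Seeds were sown in sterilized diluvial soil and covered with about 1.5 cm of soil. An emulsion formulation diluted with water to a predetermined herbicide amount was sprayed evenly onto the soil surface. Plants grew in a greenhouse at 25° C. to 30° C., and the effect was scored three weeks after application using criteria from an earlier test.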

lambsquarters [2] = test: Test Example 5: herbicidal effect by foliage application, plastic box (Table 20, symbol O); format: in vivo, lambsquarters (Chenopodium album); conditions: foliage application, 320 g/ha
Summary of the method: (§2)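 Plants sown in sterilized diluvial soil and grown 14 days in a greenhouse at 25° C to 30° C, then sprayed on the foliage with the compound's emulsion diluted in water to a predetermined herbicide amount. Injury to weeds and crops scored three weeks after application on a visual rating scale.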

Italian ryegrass [3] = test: Test Example 4: herbicidal effect by soil treatment (Table 19, symbol K); format: in vivo, Italian ryegrass (Lolium multiflorum)
Summary of the method: as §1

velvetleaf [4] = test: Test Example 5: herbicidal effect by foliage application, plastic box (Table 20, symbol M); format: in vivo, velvetleaf (Abutilon theophrasti); conditions: foliage application, 320 g/ha
Summary of the method: as §2

chickweed [5] = test: Test Example 5: herbicidal effect by foliage application, plastic box (Table 20, symbol P); format: in vivo, common chickweed (Stellaria media); conditions: foliage application, 320 g/ha
Summary of the method: as §2

barnyard grass [6] = test: Test Example 5: herbicidal effect by foliage application, plastic box (Table 20, symbol H); format: in vivo, barnyard grass (Echinochloa crus-galli); conditions: foliage application, 320 g/ha
Summary of the method: as §2

barnyard grass [7] = test: Test Example 3: herbicidal effect by foliage application, Wagner pot (Table 18, symbol H); format: in vivo, barnyard grass (Echinochloa crus-galli); conditions: 320 g/ha
Summary of the method: (§3)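 Plants were sown in alluvial soil held under 0.1–0.5 cm standing water and grown 14 days in a greenhouse at 25–30 °C. An emulsifiable formulation, water-diluted to the set dose, was then sprayed onto the foliage, and effects were scored three weeks later using previously defined criteria.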

wild oat [8] = test: Test Example 5: herbicidal effect by foliage application, plastic box (Table 20, symbol I); format: in vivo, wild oat (Avena fatua); conditions: foliage application, 320 g/ha
Summary of the method: as §2

late watergrass = test: Test Example 2: herbicidal activity, application during weed generation under submerged conditions (Table 17, symbol A); format: in vivo, late watergrass (Echinochloa oryzicola); conditions: AAH 320 g/ha; application during weed generation, submerged conditions
Summary of the method: (§4)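 Mixed weed seedlings in alluvial soil under a 4 cm water layer, greenhouse-grown at 25–30° C. Compound given as a diluted emulsion into the floodwater at the 1–2 leaf stage; response graded after three weeks.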

Chinese sprangletop = test: Test Example 3: herbicidal effect by foliage application, Wagner pot (Table 18, symbol D); format: in vivo, chinese sprangletop (Leptochloa chinensis); conditions: 320 g/ha
Summary of the method: as §3

redroot pigweed [9] = test: Test Example 5: herbicidal effect by foliage application, plastic box (Table 20, symbol N); format: in vivo, redroot pigweed (Amaranthus retroflexus); conditions: foliage application, 320 g/ha
Summary of the method: as §2

rice flat sedge = test: Test Example 3: herbicidal effect by foliage application, Wagner pot (Table 18, symbol E); format: in vivo, rice flat sedge (Cyperus iria); conditions: 320 g/ha
Summary of the method: as §3

blackgrass [10] = test: Test Example 4: herbicidal effect by soil treatment (Table 19, symbol J); format: in vivo, blackgrass (Alopecurus myosuroides)
Summary of the method: as §1

wild oat [11] = test: Test Example 4: herbicidal effect by soil treatment (Table 19, symbol I); format: in vivo, wild oat (Avena fatua)
Summary of the method: as §1

southern crabgrass [12] = test: Test Example 5: herbicidal effect by foliage application, plastic box (Table 20, symbol F); format: in vivo, southern crabgrass (Digitaria ciliaris); conditions: foliage application, 320 g/ha
Summary of the method: as §2

windgrass [13] = test: Test Example 5: herbicidal effect by foliage application, plastic box (Table 20, symbol L); format: in vivo, windgrass (Apera spica-venti); conditions: foliage application, 320 g/ha
Summary of the method: as §2

persian speedwell [14] = test: Test Example 5: herbicidal effect by foliage application, plastic box (Table 20, symbol R); format: in vivo, Persian speedwell (Veronica persica); conditions: foliage application, 320 g/ha
Summary of the method: as §2

green foxtail [15] = test: Test Example 5: herbicidal effect by foliage application, plastic box (Table 20, symbol G); format: in vivo, green foxtail (Setaria viridis); conditions: foliage application, 320 g/ha
Summary of the method: as §2

persian speedwell [16] = test: Test Example 4: herbicidal effect by soil treatment (Table 19, symbol R); format: in vivo, Persian speedwell (Veronica persica)
Summary of the method: as §1

oval-leafed pondweed = test: Test Example 2: herbicidal activity, application during weed generation under submerged conditions (Table 17, symbol C); format: in vivo, oval-leafed pondweed (Monochoria vaginalis); conditions: AAH 320 g/ha; application during weed generation, submerged conditions
Summary of the method: as §4

blackgrass [17] = test: Test Example 5: herbicidal effect by foliage application, plastic box (Table 20, symbol J); format: in vivo, blackgrass (Alopecurus myosuroides); conditions: foliage application, 320 g/ha
Summary of the method: as §2

Japanese bulrush = test: Test Example 2: herbicidal activity, application during weed generation under submerged conditions (Table 17, symbol B); format: in vivo, Japanese bulrush (Schoenoplectus juncoides); conditions: AAH 320 g/ha; application during weed generation, submerged conditions
Summary of the method: as §4

Italian ryegrass [18] = test: Test Example 5: herbicidal effect by foliage application, plastic box (Table 20, symbol K); format: in vivo, Italian ryegrass (Lolium multiflorum); conditions: foliage application, 320 g/ha
Summary of the method: as §2

windgrass [19] = test: Test Example 4: herbicidal effect by soil treatment (Table 19, symbol L); format: in vivo, windgrass (Apera spica-venti)
Summary of the method: as §1

green foxtail [20] = test: Test Example 4: herbicidal effect by soil treatment (Table 19, symbol G); format: in vivo, green foxtail (Setaria viridis); conditions: 320 g/ha
Summary of the method: as §1

velvetleaf [21] = test: Test Example 4: herbicidal effect by soil treatment (Table 19, symbol M); format: in vivo, velvetleaf (Abutilon theophrasti); conditions: 320 g/ha
Summary of the method: as §1

lambsquarters [22] = test: Test Example 4: herbicidal effect by soil treatment (Table 19, symbol O); format: in vivo, lambsquarters (Chenopodium album); conditions: 320 g/ha
Summary of the method: as §1

redroot pigweed [23] = test: Test Example 4: herbicidal effect by soil treatment (Table 19, symbol N); format: in vivo, redroot pigweed (Amaranthus retroflexus); conditions: 320 g/ha
Summary of the method: as §1

southern crabgrass [24] = test: Test Example 4: herbicidal effect by soil treatment (Table 19, symbol F); format: in vivo, southern crabgrass (Digitaria ciliaris); conditions: 320 g/ha
Summary of the method: as §1

barnyard grass [25] = test: Test Example 4: herbicidal effect by soil treatment (Table 19, symbol H); format: in vivo, barnyard grass (Echinochloa crus-galli); conditions: 320 g/ha
Summary of the method: as §1

[26] = amount of applied herbicide 320 g/ha
[27] = evaluated three weeks after application

CCCC(=O)Oc1c(C)nn(C)c(=O)c1-c1c(-c2ccc(OC(F)(F)F)cc2)sc2ccccc12 [1-032]
herbicidal effect rating, P: chickweed (chickweed [1]; [26]): 3 (Herbicidal rate of 40% or more and less than 70%) | herbicidal effect grade, O: lambsquarters (lambsquarters [2]; three weeks after application): 5 (Herbicidal rate of 90% or more (almost completely withered)) | herbicidal effect rating, K: Italian ryegrass (Italian ryegrass [3]; [26]): 4 (Herbicidal rate of 70% or more and less than 90%) | herbicidal effect grade, M: velvetleaf (velvetleaf [4]; three weeks after application): 5 (Herbicidal rate of 90% or more (almost completely withered)) | herbicidal effect grade, P: chickweed (chickweed [5]; three weeks after application): 5 (Herbicidal rate of 90% or more (almost completely withered)) | herbicidal effect grade, H: barnyard grass (barnyard grass [6]; three weeks after application): 3 (Herbicidal rate of 40% or more and less than 70%) | herbicidal effect on H (barnyard grass), rating 0-5 (barnyard grass [7]): 4 (Herbicidal rate of 70% or more and less than 90%) | herbicidal effect grade, I: wild oat (wild oat [8]; three weeks after application): 0 (Herbicidal rate of 5% or less (almost no effect)) | herbicidal effect rating, A: late watergrass (late watergrass): 0 (Herbicidal rate of 5% or less (almost no effect)) | herbicidal effect on D (Chinese sprangletop), rating 0-5 (Chinese sprangletop): 0 (Herbicidal rate of 5% or less (almost no effect)) | herbicidal effect grade, N: redroot pigweed (redroot pigweed [9]; three weeks after application): 4 (Herbicidal rate of 70% or more and less than 90%) | herbicidal effect on E (rice flat sedge), rating 0-5 (rice flat sedge): 5 (Herbicidal rate of 90% or more (almost completely withered)) | herbicidal effect rating, J: blackgrass (blackgrass [10]; [26]): 0 (Herbicidal rate of 5% or less (almost no effect)) | herbicidal effect rating, I: wild oat (wild oat [11]; [26]): 0 (Herbicidal rate of 5% or less (almost no effect)) | herbicidal effect grade, F: southern crabgrass (southern crabgrass [12]; three weeks after application): 0 (Herbicidal rate of 5% or less (almost no effect)) | herbicidal effect grade, L: windgrass (windgrass [13]; three weeks after application): 0 (Herbicidal rate of 5% or less (almost no effect)) | herbicidal effect grade, R: persian speedwell (persian speedwell [14]; three weeks after application): 5 (Herbicidal rate of 90% or more (almost completely withered)) | herbicidal effect grade, G: green foxtail (green foxtail [15]; three weeks after application): 4 (Herbicidal rate of 70% or more and less than 90%) | herbicidal effect rating, R: persian speedwell (persian speedwell [16]; [26]): 5 (Herbicidal rate of 90% or more (almost completely withered)) | herbicidal effect rating, C: oval-leafed pondweed (oval-leafed pondweed): 3 (Herbicidal rate of 40% or more and less than 70%) | herbicidal effect grade, J: blackgrass (blackgrass [17]; three weeks after application): 2 (Herbicidal rate of 20% or more and less than 40%) | herbicidal effect rating, B: Japanese bulrush (Japanese bulrush): 1 (Herbicidal rate of 5% or more and less than 20%) | herbicidal effect grade, K: Italian ryegrass (Italian ryegrass [18]; three weeks after application): 3 (Herbicidal rate of 40% or more and less than 70%) | herbicidal effect rating, L: windgrass (windgrass [19]; [26]): 0 (Herbicidal rate of 5% or less (almost no effect))

COCCOCOc1c(C)nn(C)c(=O)c1-c1c(-c2ccc(OCC#N)cc2)sc2ccc(F)cc12 [2-067]
herbicidal effect rating, P: chickweed (chickweed [1]; 320 g/ha): 0 (Herbicidal rate of 5% or less (almost no effect)) | herbicidal effect rating, G: green foxtail (green foxtail [20]): 0 (Herbicidal rate of 5% or less (almost no effect)) | herbicidal effect on O: lambsquarters (lambsquarters [2]; [27]): 4 (Herbicidal rate of 70% or more and less than 90%) | herbicidal effect rating, K: Italian ryegrass (Italian ryegrass [3]; 320 g/ha): 0 (Herbicidal rate of 5% or less (almost no effect)) | herbicidal effect on M: velvetleaf (velvetleaf [4]; [27]): 2 (Herbicidal rate of 20% or more and less than 40%) | herbicidal effect on P: chickweed (chickweed [5]; [27]): 4 (Herbicidal rate of 70% or more and less than 90%) | herbicidal effect on H: barnyard grass (barnyard grass [6]; [27]): 1 (Herbicidal rate of 5% or more and less than 20%) | herbicidal effect on H (barnyard grass), rating 0-5 (barnyard grass [7]): 4 (Herbicidal rate of 70% or more and less than 90%) | herbicidal effect rating, M: velvetleaf (velvetleaf [21]): 0 (Herbicidal rate of 5% or less (almost no effect)) | herbicidal effect on I: wild oat (wild oat [8]; [27]): 0 (Herbicidal rate of 5% or less (almost no effect)) | herbicidal effect rating, O: lambsquarters (lambsquarters [22]): 3 (Herbicidal rate of 40% or more and less than 70%) | herbicidal effect rating, A: late watergrass (late watergrass): 2 (Herbicidal rate of 20% or more and less than 40%) | herbicidal effect on D (Chinese sprangletop), rating 0-5 (Chinese sprangletop): 5 (Herbicidal rate of 90% or more (almost completely withered)) | herbicidal effect on N: redroot pigweed (redroot pigweed [9]; [27]): 5 (Herbicidal rate of 90% or more (almost completely withered)) | herbicidal effect rating, N: redroot pigweed (redroot pigweed [23]): 3 (Herbicidal rate of 40% or more and less than 70%) | herbicidal effect on E (rice flat sedge), rating 0-5 (rice flat sedge): 3 (Herbicidal rate of 40% or more and less than 70%) | herbicidal effect rating, J: blackgrass (blackgrass [10]; 320 g/ha): 0 (Herbicidal rate of 5% or less (almost no effect)) | herbicidal effect rating, F: southern crabgrass (southern crabgrass [24]): 0 (Herbicidal rate of 5% or less (almost no effect)) | herbicidal effect rating, I: wild oat (wild oat [11]; 320 g/ha): 0 (Herbicidal rate of 5% or less (almost no effect)) | herbicidal effect on F: southern crabgrass (southern crabgrass [12]; [27]): 3 (Herbicidal rate of 40% or more and less than 70%) | herbicidal effect on L: windgrass (windgrass [13]; [27]): 0 (Herbicidal rate of 5% or less (almost no effect)) | herbicidal effect on R: persian speedwell (persian speedwell [14]; [27]): 5 (Herbicidal rate of 90% or more (almost completely withered)) | herbicidal effect on G: green foxtail (green foxtail [15]; [27]): 1 (Herbicidal rate of 5% or more and less than 20%) | herbicidal effect rating, R: persian speedwell (persian speedwell [16]; 320 g/ha): 3 (Herbicidal rate of 40% or more and less than 70%) | herbicidal effect rating, C: oval-leafed pondweed (oval-leafed pondweed): 0 (Herbicidal rate of 5% or less (almost no effect)) | herbicidal effect on J: blackgrass (blackgrass [17]; [27]): 0 (Herbicidal rate of 5% or less (almost no effect)) | herbicidal effect rating, H: barnyard grass (barnyard grass [25]): 0 (Herbicidal rate of 5% or less (almost no effect)) | herbicidal effect rating, B: Japanese bulrush (Japanese bulrush): 0 (Herbicidal rate of 5% or less (almost no effect)) | herbicidal effect on K: Italian ryegrass (Italian ryegrass [18]; [27]): 0 (Herbicidal rate of 5% or less (almost no effect)) | herbicidal effect rating, L: windgrass (windgrass [19]; 320 g/ha): 0 (Herbicidal rate of 5% or less (almost no effect))

Reference: patent US20230085307A1, “PYRIDAZINONE COMPOUND AND HERBICIDE” (NISSAN CHEMICAL CORPORATION, priority 2019, published 2023)
